Test results from DBAASP.
Converted amounts (≈) assume the structure as drawn.

Key:
Assay in all cases: ≥ marks a high value that may be exact or a test limit, other limits are often not marked, values filed in µg/mL are converted to µM
[1] = test system: Staphylococcus aureus ATCC 9144
[2] = test system: Escherichia coli ATCC 25922
[3] = test system: Botrytis cinerea 101
[4] = test system: Corynebacterium glutamicum ATCC 13032
[5] = test system: Staphylococcus aureus 68 HER 1049
[6] = test system: Escherichia coli K12 MG1655
[7] = test system: Escherichia coli ATCC 51659
[8] = test system: Acinetobacter baumannii ATCC BAA-1794
[9] = test system: Staphylococcus aureus ATCC 33592
[10] = test system: Pseudomonas aeruginosa PAO1
[11] = test system: Escherichia coli AS1.349
[12] = test system: Klebsiella pneumoniae subsp. pneumoniae CGMCC 1.176
[13] = test system: Klebsiella aerogenes CGMCC 1.876
[14] = test system: Bacillus cereus AS1.126
[15] = test system: Enterococcus faecium CGMCC 1.2334
[16] = test system: Pseudomonas aeruginosa CGMCC 1.860
[17] = test system: Acinetobacter baumannii CICC 22934
[18] = test system: Enterococcus faecalis CGMCC 1.595
[19] = test system: Enterobacter cloacae CGMCC 1.58
[20] = test system: Staphylococcus aureus AS1.72
[21] = test system: Lactococcus lactis AS1.1690
[22] = test system: Proteus mirabilis CICC 22931
[23] = test system: Listeria grayi DSM 20601
[24] = test system: Pseudomonas aeruginosa LCCI
[25] = test system: Staphylococcus aureus ATCC 29213
[26] = test system: Pseudomonas aeruginosa LC
[27] = test system: Pseudomonas aeruginosa ATCC 21630
[28] = test system: Pseudomonas aeruginosa LCCE
[29] = test system: Pseudomonas aeruginosa ATCC 27853
[30] = test system: Salmonella enterica subsp. enterica serovar Typhimurium C77-31
[31] = test system: Pseudomonas aeruginosa LCGE
[32] = test system: Pseudomonas aeruginosa ATCC 10419
[33] = test system: Pseudomonas aeruginosa ATCC 21625
[34] = test system: Staphylococcus epidermidis ATCC 12228
[35] = test system: Staphylococcus aureus K35
[36] = test system: Enterococcus faecium
[37] = test system: Staphylococcus aureus K52
[38] = test system: Staphylococcus aureus ATCC 25923
[39] = test system: Enterococcus faecalis ATCC 29212
[40] = test system: Staphylococcus aureus MRSA-16
[41] = test system: Staphylococcus aureus MRSA-G

In the case of `CC[C@H](C)[C@H](NC(=O)[C@H](CCCCN)NC(=O)[C@@H](NC(=O)[C@H](CCCN=C(N)N)NC(=O)[C@H](C)NC(=O)[C@H](CCC(=O)O)NC(=O)[C@H](CCC(=O)O)NC(=O)[C@@H]1CCCN1C(=O)[C@@H](N)CO)C(C)C)C(=O)N[C@@H](CC(C)C)C(=O)N[C@H](C(=O)N[C@@H](C)C(=O)N[C@H](C(=O)N1CCC[C@H]1C(=O)N[C@@H](CCC(=O)O)C(=O)N[C@@H](CCSC)C(=O)N[C@@H](CCCN=C(N)N)C(=O)N[C@@H](CCC(=O)O)C(=O)N[C@@H](CCC(=O)O)C(=O)N[C@@H](CC(=O)O)C(=O)N[C@@H](CC(C)C)C(=O)N[C@@H](CO)C(=O)N[C@@H](CCC(=O)O)C(=O)N[C@@H](CCC(=O)O)C(=O)O)[C@@H](C)CC)[C@@H](C)O` [SPEEARVKILTAIPEMREEDLSEE], the MIC [1] is reported as ≥ 100 µM, the MIC [2] is reported as > 100 µM and the MIC [3] is reported as ≥ 100 µM. The MIC [4] was ≥ 100 µM.

`CC[C@H](C)[C@H](NC(=O)CNC(=O)[C@H](CCCCN)NC(=O)[C@H](Cc1ccccc1)NC(=O)[C@H](CC(C)C)NC(=O)[C@H](CCCCN)NC(=O)[C@H](Cc1c[nH]c2ccccc12)NC(=O)[C@@H](N)CCCCN)C(=O)N[C@@H](CCCN=C(N)N)C(=O)N[C@@H](C)C(=O)N[C@H](C(=O)N[C@@H](CC(C)C)C(=O)N[C@@H](CCCCN)C(=O)N[C@H](C(=O)N[C@@H](CC(C)C)C(=O)O)C(C)C)C(C)C` [KWKLFKGIRAVLKVL] gave an MIC [5] of 4.45 µM (≈ 8 µg/mL) and an MIC [6] of 2.22 µM (≈ 4 µg/mL).

`CC(C)C[C@H](NC(=O)[C@H](CCCCN)NC(=O)[C@H](CCC(=O)O)NC(=O)[C@H](CCCCN)NC(=O)[C@@H](NC(=O)[C@H](CCCCN)NC(=O)[C@H](CCCCN)NC(=O)[C@H](Cc1ccccc1)NC(=O)[C@H](Cc1cnc[nH]1)NC(=O)[C@H](CCC(=O)O)NC(=O)[C@H](CO)NC(=O)[C@H](Cc1ccccc1)NC(=O)[C@H](Cc1c[nH]c2ccccc12)NC(=O)[C@H](CC(N)=O)NC(=O)[C@H](CCCN=C(N)N)NC(=O)[C@@H](NC(=O)[C@H](CCCCN)NC(=O)[C@@H](NC(=O)[C@H](CO)NC(=O)[C@@H](N)Cc1ccccc1)[C@@H](C)O)[C@@H](C)O)C(C)C)C(=O)N[C@@H](CCCCN)C(=O)N[C@@H](CC(=O)O)C(=O)N[C@H](C(=O)N[C@@H](Cc1ccccc1)C(=O)N[C@@H](C)C(=O)O)[C@@H](C)O` [FSTKTRNWFSEHFKKVKEKLKDTFA] was tested, and the MIC [7] was ≥ 80.6 µM, the MIC [8] was ≥ 80.6 µM and the MIC [9] was ≥ 80.6 µM. The MIC [10] was > 80.6 µM.

With `CC(C)C[C@H](NC(=O)[C@H](CC(C)C)NC(=O)[C@H](Cc1ccccc1)NC(=O)[C@H](CCCN=C(N)N)NC(=O)[C@H](CCCN=C(N)N)NC(=O)[C@H](CC(C)C)NC(=O)[C@H](Cc1cnc[nH]1)NC(=O)[C@H](CCCN=C(N)N)NC(=O)[C@H](CC(C)C)NC(=O)[C@@H](NC(=O)[C@H](C)NC(=O)[C@@H](N)CO)C(C)C)C(=O)N[C@@H](CCCN=C(N)N)C(=O)N[C@@H](CCCCN)C(=O)N[C@@H](Cc1cnc[nH]1)C(=O)N[C@@H](CCCN=C(N)N)C(=O)N[C@@H](CCCCN)C(=O)N[C@@H](Cc1cnc[nH]1)C(=O)O` [SAVLRHLRRFLLRKHRKH] the MIC [11] was ≥ 100 µM, the MIC [12] was ≥ 100 µM and the MIC [13] was ≥ 100 µM. For the same compound, the MIC [14] was 1.56 µM (≈ 3.63 µg/mL), the MIC [15] was 3.13 µM (≈ 7.27 µg/mL) and the MIC [16] was ≥ 100 µM. For the same compound, the MIC [17] was ≥ 100 µM, the MIC [18] was 3.13 µM (≈ 7.27 µg/mL) and the MIC [19] was ≥ 100 µM. The MIC [20] was 1.56 µM (≈ 3.63 µg/mL), the MIC [21] was 4.69 µM (≈ 10.9 µg/mL) and the MIC [22] was ≥ 100 µM.

For `CC[C@H](C)[C@H](NC(=O)[C@H](CS)NC(=O)[C@@H](NC(=O)[C@H](CCCN=C(N)N)NC(=O)[C@H](CCCCN)NC(=O)[C@H](CC(C)C)NC(=O)[C@H](Cc1ccccc1)NC(=O)[C@H](CC(N)=O)NC(=O)CNC(=O)[C@@H](N)CS)[C@@H](C)O)C(=O)N[C@@H](CS)C(=O)N[C@H](C(=O)N[C@@H](CCCCN)C(=O)N[C@@H](CCCCN)C(=O)O)C(C)C` [CGNFLKRTCICVKK], the MIC [23] was ≥ 60 µM.

In the case of `CC[C@H](C)[C@H](NC(=O)[C@H](CCCCN)NC(=O)[C@H](CCCCN)NC(=O)[C@H](CC(C)C)NC(=O)[C@H](CCCN=C(N)N)NC(=O)[C@H](CCCCN)NC(=O)[C@H](CCCN=C(N)N)NC(=O)[C@H](CCCCN)NC(=O)[C@H](CCCCN)NC(=O)[C@H](CCCCN)NC(=O)[C@H](CCCN=C(N)N)NC(=O)[C@H](CC(C)C)NC(=O)[C@H](CCCN=C(N)N)NC(=O)[C@H](CCCN=C(N)N)NC(=O)[C@H](Cc1ccccc1)NC(=O)[C@@H](N)CCCN=C(N)N)C(N)=O` [RFRRLRKKKRKRLKKI], the MIC [24] is reported as ≥ 256 µM, the MIC [25] is reported as 128 µM (≈ 283 µg/mL) and the MIC [26] is reported as ≥ 256 µM. The MIC [2] was 128 µM (≈ 283 µg/mL), the MIC [27] was ≥ 256 µM and the MIC [28] was ≥ 256 µM. The MIC [29] was 128 µM (≈ 283 µg/mL), the MIC [30] was ≥ 256 µM and the MIC [31] was ≥ 256 µM. For the same compound, the MIC [32] was ≥ 256 µM, the MIC [33] was ≥ 256 µM and the MIC [34] was 128 µM (≈ 283 µg/mL).

In the case of `CC[C@H](C)[C@H](NC(=O)CNC(=O)[C@H](CO)NC(=O)[C@H](CC(C)C)NC(=O)[C@@H](NC(=O)[C@H](CCCN=C(N)N)NC(=O)CNC(=O)[C@@H](NC(=O)[C@H](CC(C)C)NC(=O)[C@@H]1CCCN1C(=O)[C@H](CC(C)C)NC(=O)[C@@H](N)CCCCN)[C@@H](C)CC)C(C)C)C(=O)N[C@@H](CC(C)C)C(N)=O` [KLPLIGRVLSGIL], the MIC [35] is reported as ≥ 58.2 µM, the MIC [36] is reported as ≥ 116 µM and the MIC [37] is reported as ≥ 58.2 µM. The MIC [38] was 83.7 µM (≈ 115 µg/mL) and the MIC [39] was > 168 µM.

`CC[C@H](C)[C@H](NC(=O)[C@H](C)NC(=O)[C@H](CCCCN)NC(=O)[C@@H](NC(=O)CNC(=O)CNC(=O)[C@H](Cc1c[nH]c2ccccc12)NC(=O)[C@H](Cc1ccccc1)NC(=O)[C@H](CCCCN)NC(=O)[C@H](CCCCN)NC(=O)[C@H](Cc1ccccc1)NC(=O)[C@@H](N)CO)C(C)C)C(=O)N[C@@H](Cc1ccccc1)C(=O)N[C@@H](CCCCN)C(=O)NCC(=O)N[C@@H](C)C(=O)N[C@@H](CCCN=C(N)N)C(=O)N[C@@H](CCCCN)C(=O)NCC(=O)N[C@@H](Cc1c[nH]c2ccccc12)C(=O)N[C@@H](CCCCN)C(=O)O` [SFKKFWGGVKAIFKGARKGWK] was tested, and the MIC [2] was 1 µM (≈ 2.43 µg/mL), the MIC [40] was ≥ 32 µM and the MIC [41] was ≥ 32 µM.
